One may read the bioavailability as dose-corrected exposure relative to a reference, in per cent. Broadly, the clearance is a measure of how efficiently the substance is removed, as volume per time. Read a high clearance as efficient removal. For orientation: half-life means the time needed for the level to fall by half in the phase considered.

The text below walks through data of US20240317722A1, “HETEROARYL-3-PIPERIDINEDIONE COMPOUND AND USE THEREOF” (Medshine Discovery Inc., priority 2021, published 2024).

The test system of series [1] is human triple-negative breast cancer MDA-MB-231 cells. Put plainly: In vivo pharmacodynamic study, subcutaneous xenograft tumor Balb/c nude mouse model of MDA-MB-231 cells. More on the design: species or system Balb/c nude mice. The note with it: for Tumor volume (Day 0): Day 0 (grouping); for in vivo efficacy on the xenograft tumor model (in words): MDA-MB-231 xenograft, oral. The method, then: Cell culture: Human triple-negative breast cancer MDA-MB-231 cells (ATCC-HTB-26) were cultured in monolayer in vitro. The culture conditions were RPMI-1640 medium with 10% fetal bovine serum in an incubator at 37° C. and 5% CO2. Conventional digestion with trypsin-EDTA was performed once every two days for passage. When the cell saturation was 80%-90% and the number met the requirement, the cells were collected, counted, and inoculated.
Assay animals: Balb/c nude mice, female, 6 weeks old upon arrival, purchased from Shanghai Bikai Experimental Animal Co., Ltd.
Cell inoculation: 0.2 mL (5×10^6 cells) of MDA-MB-231 cells (with matrigel, v/v 1:1) were subcutaneously inoculated into the right back of each mouse. The grouping for administration was started when the average tumor volume reached 110 mm^3. One dosing cycle was seven days, with administration once a day and an interval of 24 hours. The test compound was administered orally for a total of four cycles. The dosages of test compound WX005 were 10 mg/kg, 30 mg/kg and 100 mg/kg respectively, and the dosage of WX013 was 30 mg/kg respectively. Tumor diameter was measured twice a week with a vernier caliper. Tumor volume was calculated by the following formula: V=0.5a×b^2, where a and b are the long and short diameters of the tumor, respectively. The anti-tumor efficacy of compounds was evaluated by TGI (%) or relative tumor proliferation rate T/C (%). Relative tumor proliferation rate T/C (%)=TRTV/CRTV×100% (TRTV: average RTV of the treatment group; CRTV: average RTV of the negative control group). The relative tumor volume (RTV) was calculated based on the results of tumor measurement by the calculation formula: RTV=Vt/V0, where V0 is the tumor volume measured at grouping for administration (i.e., D0), and Vt is the tumor volume at a certain measurement, and TRTV and CRTV are taken on the same day.

Series [2] in a line: Pharmacokinetics of the compound in rats. Type of series: in vivo, SD rats. From the text:
In this study, SD male rats were selected as the test animals, and the LC/MS/MS method was used to quantitatively determine the drug concentration at different time points in the plasma of rats intravenously or orally administered the test compound, so as to evaluate the pharmacokinetic profile of the test compound in rats.
Sprague Dawley (SD) rats (male, 200-300 g, 7-10 weeks old, Beijing Vital River).
A clear solution or suspension of the test compound was intravenously injected into SD rats (fasted overnight) via tail or given to SD rats (fasted overnight) by gavage. For intravenous injection administration, blood was collected from the jugular vein at 0 h (before administration) and 0.083, 0.25, 0.5, 1, 2, 4, 6, 8, and 24 h after administration. Each sample was collected about 0.25 mL. Heparin sodium was added to anti-coagulate. Blood samples were collected and placed on wet ice, and centrifuged within 1 hour to separate the plasma (centrifugation conditions: 6000 g, 3 minutes, 2-8° C.). Plasma samples were stored in a −80° C. refrigerator before analysis; For oral gavage administration, blood was collected from the jugular vein at 0 h (before administration) and 0.083, 0.25, 0.5, 1, 2, 4, 6, 8, and 24 h after administration. Each sample was collected about 0.25 mL. Heparin sodium was added to anti-coagulate. Blood samples were collected and placed on wet ice, and centrifuged within 1 hour to separate the plasma (centrifugation conditions: 6000 g, 3 minutes, 2-8° C.). Plasma samples were stored in an −80° C. refrigerator before analysis. Through blood drug concentration data at different time points, Phoenix WinNonlin8.2.0 was used to calculate pharmacokinetic parameters, providing parameters such as AUC0-t, AUC0-∞, MRT0-∞, Cmax, Tmax, and T1/2, etc. and their mean and standard deviation.

The mark [3] stands for this setting: administration by gavage (10 mg/kg).

As to `COCCOc1cc(NC(=O)NCc2ccc3c(C4CCC(=O)NC4=O)coc3c2)cc(Cl)c1C` (stereo not drawn) [WX005], in series [1] (10 mg/kg orally once a day), the “Tumor volume (Day 0)” value is on record as 108.29 mm^3, the “Relative tumor proliferation rate T/C (Day 27)” value amounted to 0%, the “TGI (Day 27)” value was found to be 114.91% and the “Tumor volume (Day 27)” value was 0 mm^3. For the same molecule, in series [1], the “in vivo efficacy on the xenograft tumor model (in words)” value is recorded as “significant tumor shrinkage effect”. In series [2] (setting [3]), the “Area under the plasma concentration-time curve (0-inf)” value was found to be 264.34 µM·h, the Peak concentration was determined as 14.4 µM and the Time to peak is 5.33 h. The “Area under the plasma concentration-time curve (0-inf)” value in series [2] (intravenous injection (2 mg/kg)) was found to be 464.10 µM·h. Also, the bioavailability in series [2] (male, Sprague-Dawley, rat, plasma, PO 10 mg/kg vs IV 2 mg/kg, read-out: Bioavailability F) came out at 11.4%. This molecule also had a clearance in series [2] (male, Sprague-Dawley, rat, plasma, intravenous injection (2 mg/kg)) of 0.145 mL/min/kg. Further, in series [2] (male, Sprague-Dawley, rat, plasma, intravenous injection (2 mg/kg), read-out: Apparent volume of distribution), the Vd is 0.121 L/kg. Further, in series [2] (male, Sprague-Dawley, rat, plasma, intravenous injection (2 mg/kg), read-out: Elimination half-life (converted)), the half-life is 666 min.
For the molecule `COCCOc1cc(NC(=O)NCc2ccc3c(C4CCC(=O)NC4=O)noc3c2)cc(Cl)c1C` (stereo not drawn) [WX013], in series [1] (30 mg/kg orally once a day), the “Tumor volume (Day 0)” value is on record as 108.69 mm^3, the “Relative tumor proliferation rate T/C (Day 27)” value came to 0%, the “TGI (Day 27)” value was found to be 114.97% and the “Tumor volume (Day 27)” value was found to be 0 mm^3. Further, the “in vivo efficacy on the xenograft tumor model (in words)” value in series [1] is “significant tumor shrinkage effect”.
